Source: patent publication US7615380B2, “Methods for modulating an immune response by modulating KRC activity” (President and Fellows of Harvard College, priority 2001, dated 2009)

What was measured:
Format in all cases: cell-based, human
NFκB = NFκB luciferase reporter transfection assay in 293T cells
Experimental: FIGS. 2(A)-2(C) depicts KRC preventing TRAF-dependent NFkB activation. Inhibition of TRAF2 (FIG. 2(A)), TRAF5 (FIG. 2(B)) and TRAF6 (FIG. 2(C)) mediated activation of NFkB by ectopically expressed KRC. 293 T cells (3×10^5 ) were transfected with 25 ng of NFkB luciferase reporter plasmid, 50 ng of CMVβGal and 1 μg of each indicated plasmid and 24 hours post transfection cells were harvested. Data from at least five experiments normalized for β galactosidase activity are shown. Vec refers to the empty MYC vector without the addition of TRAFs.
293 T cells (3×10^5 ) were transfected with 25 ng of NFκB luciferase reporter plasmid, 50 ng of CMVβGal and 1 μg of each indicated plasmid and 24 hours post transfection cells were stimulated for 4 hours with 10 ng/ml of TNFα. (A) KRC and KRC tr (B) dominant negative and antisense KRC (C) antisense KRC in the presence of exogenous TRAF2. Data from at least five experiments normalized for β galactosidase activity are shown.
HEK293 cells ([…] per well) were seeded in 6 well plates, and 12 h later cells were transfected with EFECTENE™ (Qiagen) with 25 ng of a 2XNFκB-luciferase (Luc) reporter gene plasmid and 0.5 μg of the indicated TRAF and KRC expression vectors. Total amounts of transfected DNA were kept constant by supplementing with control empty expression vector plasmids as needed. Cell extracts were prepared 24 h after transfection, and reporter gene activity was determined via the luciferase assay system (PROMEGA). PRSV-βGal vector (50 ng) was used to normalize for transfection efficiency by measuring β galactosidase activity using the Galacton-PLUS substrate system (TROPIX, Inc.). Whenever indicated, the cells were treated for 4 hours with TNFα or IL-1 (10 ng/ml). To generate stable transfectants, EFECTENE™ mediated transfection of the RAW cell line was performed and clones were selected and maintained in complete medium supplemented with G418 (2 mg/ml).

IL-2 promoter = assay: IL-2 promoter, NFAT/AP-1 and NFAT luciferase reporters and IL-2 RT-PCR in Jurkat cells
Experimental: FIG. 19(A) Stably transfected Jurkat T cell clones with vector (vec) or KRC (Jurkat-KRC) were stimulated with PMA (50 ng/mL) plus ionomycin (2 μM) for 6 hours. IL-2 mRNA abundance was determined by RT-PCR with tubulin as an internal control. FIG. 19(B) Jurkat cells were transiently transfected with an IL-2-Luciferase reporter along with Vector, KRC, or KRCtr (amino acids 204-1055) and, in all cases, a CMV-β-Gal reporter as an internal control (see text for details). 24 hours later, cells were stimulated with PMA plus ionomycin for 6 hours (upper panel) or Raji cells loaded with SEE for 8 hours (lower panel). Luciferase activity was determined and normalized for β-Galactosidase activity. FIG. 19(C) Jurkat cells were transiently transfected with NFAT/AP-1-, NFAT-, or AP-1-Luciferase reporters and treated as above.
For each transfection, 5×10^6 Jurkat cells were incubated with either IL2-Luc, NFAT/AP1-Luc or AP1-Luc reporter DNA together with pEF vector or pEF-KRC and CMV-βGAL as normalization control in 0.4 ml of RPMI and transfected by electroporation (260 v, 975 uF). Transfected cells were cultured at 37° C. for 20 h in RPMI 1640 medium (Gibco BRL) supplemented with 10% fetal bovine serum. Transfected cells were stimulated with PMA (50 ng/ml) and ionomycin (2 uM) for 6 hours prior to luciferase (Promega) and β-galactosidase assays (Galacton-PLUS substrate system, TROPIX, Inc).
Total RNA was isolated from T cells using TRIZOL™ reagent (Gibco/BRL). One (1) μg of total RNA was reverse transcribed using iScript cDNA Synthesis Kit (BioRad). PCR was performed with 2 uM of each primer (listed below) and 2.5 units of Platinum High fidelity enzyme (Invitrogen) according to the manufacturer.
Jurkat cells were transfected by electroporation and incubated for 20 h at 37° C. before stimulation for 8 h with the Raj i B cell line and Staphylococcal Enteroxin E (SEE) using Raji cells (1:1 with Jurkat cells) and SEE (200 ng/ml).

MAPK (ERK, p38, JNK) = assay: MAPK activity in Jurkat cells (PathDetect reporter, immunoprecipitation-kinase assay)
Experimental: FIG. 20(A) Jurkat cells were transiently transfected with AP-1 Luciferase reporter along with KRC and RasN17 DN vectors. 24 hours later cells were pretreated with Rottlerin (10 μM) and stimulated for 6 hours with PMA plus ionomycin. Luciferase activity was measured as above. FIG. 20(B) Jurkat cells were transfected with a GAL4 Luciferase reporter along with a GAL4 DNA binding domain, GAL4-ATF2, or GAL4-ELK1 with or without KRC. 24 hours later, cells were stimulated with PMA plus ionomycin and analyzed for Luciferase activity as above. FIG. 20(C) Jurkat cells were transiently transfected with FLAG-JNK2, and either Vector, KRC, or MKK7. 48 hours later, cells were stimulated with PMA plus ionomycin for 6 hours and JNK activity was determined by immunoprecipitation/kinase assay. […]
KRC may enhance AP-1 function indirectly through the modulation of MAPK activity, kinases downstream of Ras that are known to potently stimulate AP-1 function (Binetruy, B., et al. (1991) Nature 351:122-127; Deng, T., and M. Karin (1994) Nature 371:171-175; Murphy, L., et al. (2002) Nat. Cell Biol. 4: 556-564). […] Co-expression of KRC with HA-ERK1, myc-ERK2, Flag-P38 and Flag-JNK2 was performed and the activity of each kinase was measured using an immunoprecipitation-kinase assay with specific substrates, GST-Elk1, GST-ATF2 and GST-Jun for each MAPK. […]

“KRC: full-length KRC zinc finger protein (SEQ ID NO:2) overexpressed from an expression vector” was tested, and the “NFκB activation induced by TRAF5 and TRAF6” value (NFκB; 293T cells) was “substantially but not completely affected”, the NFkB-dependent transactivation (NFκB; 293T cells, absence of exogenous TRAFs) was “blocked NFkB-dependent transactivation” and the “TRAF2-induced NFκB activation” value (NFκB; 293T cells, exogenous TRAF2) was “blocked TRAF2-induced NFκB activation”. For the same substance, the “TNFα-induced NFκB activation” value (NFκB; 293 cells, 10 ng/ml TNFα 4 hours) was “strongly inhibited TNFα-induced NFκB activation”, the “PMA/ionomycin induced activity of NFAT reporter” value (IL-2 promoter; Jurkat cells) was “not further increased” and the IL-2 promoter-luciferase induction (IL-2 promoter; Jurkat cells, PMA plus ionomycin) was “approximately 10 fold”. For the same substance, the “transactivation of multimerized NFAT/AP-1 and AP-1 elements” value (IL-2 promoter; Jurkat cells, PMA/ionomycin) was “enhanced PMA/ionomycin-induced transactivation”, the “IL-2 promoter activity increase” value (IL-2 promoter; Jurkat cells, Raji cells plus SEE) was “approximately 10 fold” and the “IL-2 mRNA transcripts (RT PCR)” value (IL-2 promoter; stable Jurkat clones, activated) was “higher levels of IL-2 transcripts”. The “MAPK activity, immunoprecipitation-kinase assay” value (MAPK (ERK, p38, JNK); ERK1, ERK2, P38, JNK2) was “no detectable effect on any of the MAPKs” and the “MAPK / p38 activity, PathDetect reporter (ELK-1, ATF2)” value (MAPK (ERK, p38, JNK); Jurkat cells) was “unable to modulate either MAPK or p38 activity”.
